Experimental data: patent US7297332B2, “Protease, a gene therefor and the use thereof” (Korean Research Institute of Bioscience and Biotechnology, priority 2000, dated 2007)
Entries after “also recorded” stand apart in the source; their conditions may differ.

System: protease derived from Aranicola proteolyticus
Assay: Effect of protease inhibitors on the protease (azocasein assay)
Assay type: biochemical, Aranicola proteolyticus HY-3
Details: for inhibition of the enzyme activity: 1 mM inhibitor, incubated at 37° C. for 5 minutes, azocasein substrate; for effect of metalloprotease inhibitor on protease activity: equal concentrations of inhibitors, FIG. 1
Description: Enzyme activity of the protease was measured according to the method described by Braun & Shmitz (Braun, V. & Schmitz, G., Arch. Microbiol. 124, 55-61, 1980). A substrate solution was prepared by dissolving 0.24 g of azocasein in 10 ml of 50 mM phosphate buffer (pH 7.5). The 300 □ of the substrate solution was mixed with 100 □ of bacterial culture solution and reacted at 37° C. for 30 minutes. Then, 300 □ of 10% trichloride acetate was added to the reaction solution and incubated at ambient temperature for 1 hour. The reaction solution was centrifuged at 7,000 rpm until pellet and supernatant was separated substantially. After adding 30 0 of 10% sodium hydroxide (NaOH) to the supernatant, the absorbance was measured at 420 nm. The enzymatic titer was defined as 1 unit by the 1.0 fold increment of absorbance value.
In order to examine the effects of protease inhibitors on the activity of the protease, the enzyme solution was added by 1 mM each of inhibitors enumerated below and incubated at 37° C. for 5 minutes before measuring relative enzyme activity. The inhibitors tested include antopain which is an aminopeptidase inhibitor, phosphoramidon which is a metalloendopeptidase inhibitor, pepstatin which is an aspartate protease inhibitor, E-64(L-trans-exoxysuccinyl leucylamido(4-fuanidino)butane) which is a cystein inhibitor, chymostatin which is a chymotrypsin inhibitor, leupeptin, petabloc SC, aprotinin, and PMSF which are serine protease inhibitors, phenanthroline and EDTA which are metalloprotease inhibitors.

Row | SMILES | inhibition of the enzyme activity | effect of metalloprotease inhibitor on protease activity
1 | O=C(O)CN(CCN(CC(=O)O)CC(=O)O)CC(=O)O [EDTA] | about 30% | lowered; also recorded: inhibited
2 | c1cnc2c(c1)ccc1cccnc12 [phenanthroline] | about 70% | lowered; also recorded: inhibited
